The text below walks through data of patent US7998965B2, “Glutamate aggrecanase inhibitors” (Wyeth LLC, priority 2005, dated 2011).

One assay concerns the target T1, purified recombinant human Aggrecanase-1 (rAgg1) (Homo sapiens, UniProt O75173).
T1 sequence (O75173 213-837): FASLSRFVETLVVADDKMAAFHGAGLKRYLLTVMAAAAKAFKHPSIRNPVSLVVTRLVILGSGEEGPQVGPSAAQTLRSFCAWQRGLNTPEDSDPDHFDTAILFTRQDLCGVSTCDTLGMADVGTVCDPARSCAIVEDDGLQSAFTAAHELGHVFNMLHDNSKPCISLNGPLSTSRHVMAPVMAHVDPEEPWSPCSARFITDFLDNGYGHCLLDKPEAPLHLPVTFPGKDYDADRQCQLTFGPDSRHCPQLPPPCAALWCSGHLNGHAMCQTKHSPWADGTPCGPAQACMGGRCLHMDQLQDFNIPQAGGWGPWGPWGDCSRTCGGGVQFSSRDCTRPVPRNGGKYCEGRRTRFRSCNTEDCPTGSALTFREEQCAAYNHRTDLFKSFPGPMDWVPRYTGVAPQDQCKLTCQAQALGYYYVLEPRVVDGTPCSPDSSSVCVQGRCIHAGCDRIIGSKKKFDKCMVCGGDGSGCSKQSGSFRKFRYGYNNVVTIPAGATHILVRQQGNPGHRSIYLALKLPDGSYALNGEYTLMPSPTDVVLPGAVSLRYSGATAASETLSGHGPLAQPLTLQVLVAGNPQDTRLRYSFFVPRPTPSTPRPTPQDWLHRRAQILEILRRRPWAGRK
In words: In vitro fluorescence screen for Aggrecanase-1 inhibitors. It is filed as biochemical. Conditions: Table 1.
Regarding `O=C(O)CC[C@H](NC(=O)c1cccc(-c2ccccc2)c1)C(=O)NCc1ccccc1` [Example 17WW, N^1-benzyl-N^2-(1,1′-biphenyl-3-ylcarbonyl)-L-α-glutamine], the “Agg1 IC50 (nM)” value is given as “no inh”.

The same assay, now with this note: Table 1; @ 7,500 (nM).
On to `O=C(O)CC[C@H](NC(=O)c1ccc(-c2ccc(OCC3CCC3)cc2)cc1)C(=O)NCc1ccccc1` [Example 15C, N^1-benzyl-N^2-{[4′-(cyclobutylmethoxy)-1,1′-biphenyl-4-yl]carbonyl}-L-α-glutamine], for which the “Agg1 % @ concentration” value stood at 50% @.

The same assay, now with this note: Table 1; @ 16,700 (nM).
`CCOc1ccc(-c2ccc(C(=O)N[C@@H](CCC(=O)O)C(=O)NCc3ccccc3)cc2)cc1` [Example 14, N^1-benzyl-N^2-[(4′-ethoxy-1,1′-biphenyl-4-yl)carbonyl]-L-α-glutamine]: the “Agg1 % @ concentration” value is 60% @.

The assay is the same for the next values; noted with them: Table 1; enzyme not given, column follows Agg1 IC50; read-out: Ki.
Take `CCCCCCNC(=O)[C@H](CCC(=O)O)NC(=O)c1ccc2c(c1)Cc1ccccc1-2` [Example 8OOOO, N^2-(9H-fluoren-2-ylcarbonyl)-N^1-hexyl-L-α-glutamine]: the Ki was found to be 60 nM.

Turning to `O=C(O)CC[C@H](NC(=O)c1ccc2c(c1)Cc1ccccc1-2)C(=O)NCCCc1ccccc1` [Example 8IIII, N^2-(9H-fluoren-2-ylcarbonyl)-N^1-(3-phenylpropyl)-L-α-glutamine], the Ki came to 9 nM.

The assay is the same for the next values; noted with them: Table 1; read-out: Agg1 IC50.
Take `CC(C)(C)CC(C)(C)NC(=O)[C@H](CCC(=O)O)NC(=O)c1ccc(-c2ccccc2)cc1` [Example 6C, N^2-(biphenyl-4-ylcarbonyl)-N^1-(1,1,3,3-tetramethylbutyl)-L-α-glutamine]: the IC50 worked out at 150 nM.

As to `O=C(O)CC[C@H](NC(=O)c1ccc(Br)cc1)C(=O)NCc1ccccc1` [Example 8NNNNNN, N^1-benzyl-N^2-(4-bromobenzoyl)-L-α-glutamine], the IC50 was ~40000 nM.

Consider `CC(C)(C)c1ccc(CNC(=O)[C@H](CCC(=O)O)NC(=O)c2ccc(-c3ccccc3)cc2)cc1` [Example 8KK, N^2-(1,1′-biphenyl-4-ylcarbonyl)-N^1-(4-tert-butylbenzyl)-L-α-glutamine], for which the IC50 is 180 nM.

On to `Cc1cc(C)cc(-c2ccc(C(=O)N[C@@H](CCC(=O)O)C(=O)NCc3ccccc3)o2)c1` [Example 21B, N^1-benzyl-N^2-[5-(3,5-dimethylphenyl)-2-furoyl]-L-α-glutamine], for which the IC50 was ~6700 nM.

With `O=C(O)CC[C@H](NC(=O)c1ccc(-c2ccccc2)cc1)C(=O)NCc1cccc2ccccc12` [Example 8N, N^2-(1,1′-biphenyl-4-ylcarbonyl)-N^1-(1-naphthylmethyl)-L-α-glutamine], the IC50 is 290 nM.

Regarding `CC(C)(NC(=O)[C@H](CCC(=O)O)NC(=O)c1ccc(-c2ccccc2)cc1)c1ccccc1` [Example 8TTT, N^2-(biphenyl-4-ylcarbonyl)-N^1-(1-methyl-1-phenylethyl)-L-α-glutamine], the half-inhibitory concentration (IC50) is > 10000 nM.

As to `O=C(O)CC[C@H](NC(=O)c1ccc(-c2ccccc2)cc1Cl)C(=O)NCc1ccccc1` [Example 17YY, N^1-benzyl-N^2-[(3-chloro-1,1′-biphenyl-4-yl)carbonyl]-L-α-glutamine], the IC50 was found to be 2000 nM.

As for `O=C(O)CC[C@H](NC(=O)c1ccc(-c2ccccc2)cc1)C(=O)NCCCCO` [Example 5, N^2-(1,1′-biphenyl-4-ylcarbonyl)-N^1-(4-hydroxybutyl)-L-alpha-glutamine], the IC50 was 1800 nM.

With `COc1cccc(CNC(=O)[C@H](CCC(=O)O)NC(=O)c2ccc(-c3ccccc3C)c(C)c2)c1` [Example 22C, N^2-[(2,2′-dimethyl-1,1′-biphenyl-4-yl)carbonyl]-N^1-(3-methoxybenzyl)-L-α-glutamine], the IC50 is > 50000 nM.

For `CCCCCCNC(=O)[C@H](CCC(=O)O)NC(=O)c1ccc2c(c1)Cc1ccccc1-2` [Example 8OOOO, N^2-(9H-fluoren-2-ylcarbonyl)-N^1-hexyl-L-α-glutamine], the 50% inhibitory concentration (IC50) was 52 nM.

Take `O=C(O)CC[C@H](NC(=O)c1ccc(-c2ccncc2)cc1)C(=O)NCc1ccccc1` [Example 17VV, N^1-benzyl-N^2-(4-pyridin-4-ylbenzoyl)-L-α-glutamine]: the concentration for half-maximal inhibition (IC50) worked out at 7900 nM.

Turning to `Nc1ccc(CNC(=O)[C@H](CCC(=O)O)NC(=O)c2ccc(-c3ccccc3)cc2)cc1` [Example 8AAAA, N^1-(4-aminobenzyl)-N^2-(1,1′-biphenyl-4-ylcarbonyl)-L-α-glutamine], the IC50 was 100 nM.

Regarding `Cc1cccc(C)c1-c1ccc(C(=O)N[C@@H](CCC(=O)O)C(=O)NCc2ccccc2)cc1` [Example 13F, N^1-benzyl-N^2-[(2′,6′-dimethyl-1,1′-biphenyl-4-yl)carbonyl]-L-α-glutamine], the half-inhibitory concentration (IC50) was ~200 nM.

As for `O=C(O)CC[C@H](NC(=O)c1cccc2c1Cc1ccccc1-2)C(=O)NCCCc1ccccc1` [Example 8JJJJ, N^2-(9H-fluoren-1-ylcarbonyl)-N^1-(3-phenylpropyl)-L-α-glutamine], the 50% inhibitory concentration (IC50) was > 50000 nM.

With `COc1cccc(CNC(=O)[C@H](CCC(=O)O)NC(=O)Cc2ccc(-c3ccccc3)cc2)c1` [Example 8PPPPPP, N^2-(1,1′-biphenyl-4-ylacetyl)-N^1-(3-methoxybenzyl)-L-α-glutamine], the IC50 was > 33000 nM.

As for `O=C(O)CC[C@H](NC(=O)c1ccc(-c2ccc(NC(=O)c3ccccc3)cc2)cc1)C(=O)NCc1ccccc1` [Example 24C, N^2-{[4′-(benzoylamino)-1,1′-biphenyl-4-yl]carbonyl}-N^1-benzyl-L-α-glutamine], the 50% inhibitory concentration (IC50) is ~300 nM.

As for `NC(=O)[C@H](CCC(=O)O)NC(=O)c1ccc(Nc2ncccn2)cc1` [Example 3, N^2-[4-(pyrimidin-2-ylamino)benzoyl]-L-alpha-glutamine], the IC50 amounted to 12700 nM.

Take `CCCCCCNC(=O)[C@H](CCC(=O)O)NC(=O)c1cccc2c1Cc1ccccc1-2` [Example 8PPPP, N^2-(9H-fluoren-1-ylcarbonyl)-N^1-hexyl-L-α-glutamine]: the IC50 was > 50000 nM.

Take `O=Cc1ccc(-c2cccc(CCNC(=O)[C@H](CCC(=O)O)NC(=O)c3ccc(-c4ccccc4)cc3)c2)cc1` [Example 10J, N^2-(biphenyl-4-ylcarbonyl)-N^1-[2-(4′-formylbiphenyl-3-yl)ethyl]-L-α-glutamine]: the half-maximal inhibitory concentration (IC50) amounted to 260 nM.

As to `O=C(O)CC[C@H](NC(=O)c1ccc(-c2ccccc2)cc1F)C(=O)NCc1ccccc1` [Example 17ZZ, N^1-benzyl-N^2-[(3-fluoro-1,1′-biphenyl-4-yl)carbonyl]-L-α-glutamine], the IC50 is 200 nM.

Regarding `O=C(O)CC[C@H](NC(=O)c1ccc(-c2ccccc2)o1)C(=O)NCc1ccccc1` [Example 20, N^1-benzyl-N^2-(5-phenyl-2-furoyl)-L-α-glutamine], the IC50 is ~22000 nM.

With `O=C(O)CC[C@H](NC(=O)c1ccc(-c2ccccc2)cc1)C(=O)NCc1ccncc1` [Example 8QQQ, N^2-(biphenyl-4-ylcarbonyl)-N^1-(pyridin-4-ylmethyl)-L-α-glutamine], the IC50 amounted to 330 nM.

Take `COc1cccc(CNC(=O)[C@H](CCC(=O)O)NC(=O)c2ccc(-c3ccccc3)nc2)c1` [Example 22B, N^1-(3-methoxybenzyl)-N^2-[(6-phenylpyridin-3-yl)carbonyl]-L-α-glutamine]: the 50% inhibitory concentration (IC50) worked out at 200 nM.

`O=C(O)CC[C@H](NC(=O)c1ccc2c(c1)Cc1ccccc1-2)C(=O)NCCCc1ccccc1` [Example 8IIII, N^2-(9H-fluoren-2-ylcarbonyl)-N^1-(3-phenylpropyl)-L-α-glutamine]: the IC50 is < 30 nM.

For `COc1ccc(-c2ccccc2)cc1NC(=O)[C@H](CCC(=O)O)NC(=O)c1ccc(-c2ccccc2)cc1` [Example 17BBB, N^2-(1,1′-biphenyl-4-ylcarbonyl)-N^1-(4-methoxy-1,1′-biphenyl-3-yl)-L-α-glutamine], the IC50 came to 900 nM.

Consider `O=C(O)CC[C@H](NC(=O)c1ccc2c(c1)C(=O)c1ccccc1-2)C(=O)NCCCc1ccccc1` [Example 8SSSSSS, N^2-[(9-oxo-9H-fluoren-2-yl)carbonyl]-N^1-(3-phenylpropyl)-L-α-glutamine], for which the IC50 was determined as 146 nM.

For `COc1cc(CNC(=O)[C@H](CCC(=O)O)NC(=O)c2ccc(Oc3ccccc3)cc2)cc(OC)c1OC` [Example 8NNNN, N^2-(4-phenoxybenzoyl)-N^1-(3,4,5-trimethoxybenzyl)-L-α-glutamine], the concentration for half-maximal inhibition (IC50) came out at 3400 nM.

Turning to `COc1cc(COc2ccc(-c3ccc(C(=O)N[C@@H](CCC(=O)O)C(=O)NCc4ccccc4)cc3)cc2)cc(OC)c1` [Example 15G, N^1-benzyl-N^2-({4′-[(3,5-dimethoxybenzyl)oxy]-1,1′-biphenyl-4-yl}carbonyl)-L-α-glutamine], the IC50 is 2200 nM.

Regarding `O=C(O)CC[C@H](NC(=O)c1ccc(-c2ccccc2)cc1)C(=O)NCCc1ccccc1F` [Example 8TT, N^2-(biphenyl-4-ylcarbonyl)-N^1-[2-(2-fluorophenyl)ethyl]-L-α-glutamine], the 50% inhibitory concentration (IC50) is 300 nM.

The same assay, now with this note: Table 2; read-out: Agg1 IC50.
In the case of `Cc1cccc(CNC(=O)[C@H](CCC(=O)O)NC(=O)c2ccc(Br)cc2)c1` [Example 18G, N^2-(4-bromobenzoyl)-N-(3-methylbenzyl)-L-α-glutamine], the IC50 is ~8300 nM.

As for `COc1ccc(CCN(C)C(=O)[C@H](CCC(=O)O)NC(=O)c2ccc(-c3ccccc3)cc2)cc1OC` [Example 8GGGGGG, N^2-(biphenyl-4-ylcarbonyl)-N-[2-(3,4-dimethoxyphenyl)ethyl]-N-methyl-L-α-glutamine], the 50% inhibitory concentration (IC50) was 4200 nM.

Take `CCCCN(C)C(=O)[C@H](CCC(=O)O)NC(=O)c1ccc(-c2ccccc2)cc1` [Example 8EEEEEE, N^2-(biphenyl-4-ylcarbonyl)-N-butyl-N-methyl-L-α-glutamine]: the IC50 is 5000 nM.

Broadly, the Ki is the equilibrium dissociation constant of an inhibitor or competing ligand from its target. For orientation: IC50 means the concentration needed to halve the response being measured.
